Results reported in ChEMBL document CHEMBL6092164, “Rational design, synthesis, and biophysical characterization of a peptidic MDM2-MDM4 interaction inhibitor” (Bioorg Med Chem, 2024).

Biological target: E3 ubiquitin-protein ligase Mdm2 (Homo sapiens, UniProt Q00987)
Test: Binding affinity to RED dye fluorescently labelled full length human recombinant GST-tagged MDM2 expressed in Escherichia coli BL21 cells assessed as dissociation constant incubated for 60 mins in dark by Microscale Thermophoresis assay

Chain of E3 ubiquitin-protein ligase Mdm2 (Q00987 whole entry): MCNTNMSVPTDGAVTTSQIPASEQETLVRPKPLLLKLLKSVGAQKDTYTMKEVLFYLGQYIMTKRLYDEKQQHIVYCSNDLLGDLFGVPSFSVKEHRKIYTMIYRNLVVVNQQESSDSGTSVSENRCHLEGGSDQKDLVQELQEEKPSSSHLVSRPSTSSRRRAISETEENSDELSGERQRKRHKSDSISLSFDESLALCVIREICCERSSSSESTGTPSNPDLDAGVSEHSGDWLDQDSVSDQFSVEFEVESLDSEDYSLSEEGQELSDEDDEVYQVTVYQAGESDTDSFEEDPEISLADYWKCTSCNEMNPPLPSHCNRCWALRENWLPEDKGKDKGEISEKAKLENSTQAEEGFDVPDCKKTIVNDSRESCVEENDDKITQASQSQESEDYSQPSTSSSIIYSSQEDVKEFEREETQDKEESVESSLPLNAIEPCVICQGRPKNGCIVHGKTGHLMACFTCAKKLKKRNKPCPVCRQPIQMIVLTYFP

Substance | Kd
H-KVFIA-OH | 19.2 µM
H-VAIKF-OH | > 1000 µM
